According to patent US5834431A, “Des-Arg^9 -BK antagonists” (Cortech, Inc., priority 1995, dated 1998):
Each block holds one compound with its values, some of them ahead of it. Square brackets hold non-standard residues; d marks the D form. Ends that are not written are not given here. Peptide text beside a SMILES is read from it. Oic = O=C(O)[C@@H]1C[C@@H]2CCCC[C@@H]2N1; dIgl = N[C@@H](C(=O)O)C1Cc2ccccc2C1; Gly(cPent) = N[C@H](C(=O)O)C1CCCC1; Igl = N[C@H](C(=O)O)C1Cc2ccccc2C1; Hyp = O=C(O)[C@@H]1C[C@@H](O)CN1; dTic = O=C(O)[C@H]1Cc2ccccc2CN1

How the values were obtained:
[1] = Stability in rat kidney brush border microvilli; format: in vitro ADME
Description: Kidney membranes were prepared as indicated in the literature (Booth et al., Biochemical Journal, 142: 575 (1974)). Rat kidneys were obtained after sacrifice and rinsed in several volumes of a 2 mM tris, 10 mM mannitol buffer, pH 7.1. Cortical material was carefully removed and homogenized in ten volumes of the buffer. The homogenate was spun in a IEC Centra-8 refrigerated centrifuge. (4° C., 200×g). The supernatant was made 10 mM with respect to MgCl2. The supernatant material was subjected to further centrifugation as indicated: [drawing 2] Pellet resuspended in tris-mannitol buffer. Protein concentration was determined by the method of Bradford (Anal. Biochem., 72:248-254 (1976)). Bradykinin antagonists were prepared at 1 mM concentration in a phosphate-buffered saline solution (phosphate saline, 2.6 mM KH2 PO4, 10.42 mM Na2 HPO4, 0.1454M NaCl, pH. 7.2). Aliquots (10 μl) of the compound were added to 90 μl of the tissue samples in Eppendorf tubes. Samples were incubated various time points at 37° C. At each time point protein was precipitated by addition of acetonitrile, acetonitrile made 0.1M HCl or 10% (v/v) trifluoroacetic acid in water (100 μl). Tubes were spun (14,000 rpm, 10 min) in an Eppendorf Model 5415C microcentrifuge. Samples were filtered and analyzed using reverse-phase HPLC (C18 column 4.6×150 mm) and a 13.5% to 90% acetonitrile gradient in 0.1% TFA. Compound half-life was determined by analysis of raw data using ENZFIT application software (Elsevier).

[2] = Stability in rat lung membranes; format: in vitro ADME
Description: Rat or human lung (3 gm) was prepared as a modification of […] et al. (Biochemical Pharmacology 33: 3471 (1984)). Tissues were removed and placed in cold phosphate-saline (3×). Material was minced and homogenized in 20 volumes (w/v) of 0.5 mM tris HCl. 50 mM mannitol, pH 7.0. Calcium chloride was added to the homogenate to give a final concentration of 10 mM. The material was filtered through a guaze pad to remove loose connective tissue. Filtrate was spun in a Beckman centrifuge (3,000×g) for thirty minutes. The resultant supernatant fraction was spun in a Beckman L7-65 ultracentrifuge (43,000×g, 30 min) to spin down membranes. The centrifugation step was repeated on the membrane pellet fraction two additional times. The pellet was reconstituted in 4 ml of the tris mannitol buffer and stored at -70° C. Protein was determined by the method of Bradford. Bradykinin antagonists were prepared at 1 mM concentration in a phosphate-buffered saline solution (phosphate saline, 2.6 mM KH2 PO4, 10.42 mM Na2 HPO4, 0.1454M NaCl, pH. 7.2). Aliquots (10 μl) of the compound were added to 90 μl of the tissue samples in Eppendorf tubes. Samples were incubated various time points at 37° C. At each time point protein was precipitated by addition of acetonitrile, acetonitrile made 0.1M HCl or 10% (v/v) trifluoroacetic acid in water (100 μl). Tubes were spun (14,000 rpm, 10 min) in an Eppendorf Model 5415C microcentrifuge. Samples were filtered and analyzed using reverse-phase HPLC (C18 column 4.6×150 mm) and a 13.5% to 90% acetonitrile gradient in 0.1% TFA. Compound half-life was determined by analysis of raw data using ENZFIT application software (Elsevier).

[3] = target: T1, BK1 (hypotensive response to desArg9BK) (Canis lupus familiaris, UniProt Q9BDQ5); experiment: In vivo inhibition of hypotensive response to desArg9BK in anaesthetized dogs; parameters: species or system Mongrel dogs; conditions: dog
T1 construct: Mongrel dogs of either sex, weight range 10-15 kg were used; from tissue; host or cells: whole anaesthetized mongrel dog (in vivo blood pressure)
T1 sequence (Q9BDQ5 1-350): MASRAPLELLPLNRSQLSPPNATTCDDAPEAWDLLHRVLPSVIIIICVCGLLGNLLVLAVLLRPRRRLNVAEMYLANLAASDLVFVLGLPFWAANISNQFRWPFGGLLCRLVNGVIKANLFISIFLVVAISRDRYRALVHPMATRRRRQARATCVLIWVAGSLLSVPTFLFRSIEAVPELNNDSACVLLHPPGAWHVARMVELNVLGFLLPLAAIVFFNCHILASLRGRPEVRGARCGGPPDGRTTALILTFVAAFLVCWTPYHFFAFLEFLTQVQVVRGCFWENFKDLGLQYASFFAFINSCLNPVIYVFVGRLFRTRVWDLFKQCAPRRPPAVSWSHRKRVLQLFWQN
Description: Mongrel dogs of either sex, weight range 10-15 kg were used. These were anaesthesized with pentobarbitone, 30 mg/kg i.v. and catheters placed in one femoral artery and both femoral veins for the recording of blood pressure and infusion and injection of compounds. […] After the end of the infusion of the highest dose of the antagonist compound, BK and des-Arg^9 -BK were injected at intervals for up to four hours.

[4] = test system: type I diabetic hyperglycemia; conditions: literature, Zuccollo et al. 1995; cited from earlier work
[5] = test system: angiogenic response elicited by bradykinin; conditions: literature, Hu et al. 1993; cited from earlier work
[6] = target: T2, B2 receptor (Homo sapiens, UniProt P30411); experiment: Human B2 binding, human BK2 clone membranes, 3H-Bradykinin; conditions: 0.3 nM 3H-Bradykinin, i.a. = inactive, read-out: Human Binding - pIC50 B2 (converted)
T2 construct: expressed in transfected cells
T2 sequence (P30411 1-391): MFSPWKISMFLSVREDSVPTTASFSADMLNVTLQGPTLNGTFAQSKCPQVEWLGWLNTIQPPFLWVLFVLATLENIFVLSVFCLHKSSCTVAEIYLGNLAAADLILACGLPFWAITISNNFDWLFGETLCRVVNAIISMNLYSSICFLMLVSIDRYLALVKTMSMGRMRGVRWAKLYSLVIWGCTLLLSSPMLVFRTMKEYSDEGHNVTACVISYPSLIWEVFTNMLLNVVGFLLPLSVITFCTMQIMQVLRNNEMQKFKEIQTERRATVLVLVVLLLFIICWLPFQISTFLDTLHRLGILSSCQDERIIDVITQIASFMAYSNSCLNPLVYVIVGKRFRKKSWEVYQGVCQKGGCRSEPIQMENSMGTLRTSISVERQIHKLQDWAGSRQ
Description: (§1) Human lung fibroblasts IMR-90 cells were obtained from ATCC and propagated in DMEM media in […] roller bottles until confluent. Three hours prior to harvesting, the cells were treated with Interleukin lb (200 pg/ml). Human BK2 clones were propagated in F12 media until confluent. Preparation of membranes for binding assays was carried out by scraping cells from roller bottles in ice cold PBS and centrifuging at 1000 ×g, at 4° C. for 15 minutes. The supernatant was discarded and pellet resuspended in Buffer A consisting of 25 mM TES(pH 6.8) with 2 uM 1,10-Phenanthroline, and centrifuged at 27,000 ×g for 15 min. this was then repeated. The final pellet was resuspended in Buffer B (Buffer A with 2 uM Captopril, 140 ug/Ml Bacitracin, 0.1%BSA), and stored in 1 ml aliquots, frozen at -20° C. until needed.
(§2) Binding assays were performed by incubating human clone membranes with 0.3 nM ^3 H-Bradykinin or IMR-90 membranes with 0.5 nM ^3 H-des-Arg^9 -Kallidin in the presence of the peptides in assay buffer (Buffer B with 1 mM Dithiotreitol), at room temperature, for 45 minutes. All test compound dilutions were in triplicate. Assays were harvested by quick filtration in a Tomtec Harvester 96, with ice cold wash buffer consisting of 10 mM Tris/HCl, pH 7.5, 100 mM NaCl, 0.02%BSA, onto Wallec printed glassfiber Filtermat "B", which had been pre-soaked with 0.1% PEI and previously air-dried. Filtermats were counted in 9.5 mls Wallec Beta-Plate Scint, in Wallec 1450 MicroBeta Counter.

[7] = target: T3, B1 receptor (Homo sapiens, UniProt P46663); experiment: Human B1 binding, IL-1b-treated IMR-90 membranes, 3H-des-Arg9-Kallidin; conditions: 0.5 nM 3H-des-Arg9-Kallidin, pIC50 = -log of molar IC50
T3 construct: Human lung fibroblasts IMR-90 cells were obtained from ATCC and propagated in DMEM media; host or cells: IMR-90 human lung fibroblasts, treated with interleukin 1b three hours before harvest; membranes
T3 sequence (P46663 1-353): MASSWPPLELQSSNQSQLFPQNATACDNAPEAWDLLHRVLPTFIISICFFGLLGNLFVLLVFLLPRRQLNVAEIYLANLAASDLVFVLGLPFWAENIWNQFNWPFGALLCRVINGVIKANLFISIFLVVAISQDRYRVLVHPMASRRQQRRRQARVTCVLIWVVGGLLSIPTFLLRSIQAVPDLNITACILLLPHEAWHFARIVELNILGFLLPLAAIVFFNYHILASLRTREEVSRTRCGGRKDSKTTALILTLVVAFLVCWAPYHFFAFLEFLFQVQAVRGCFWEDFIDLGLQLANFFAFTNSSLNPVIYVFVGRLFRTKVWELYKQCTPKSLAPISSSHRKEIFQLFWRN
Description: as §1
as §2, with “air-dried.” for “air-dried. Filtermats were counted in 9.5 mls Wallec Beta-Plate Scint, in Wallec 1450 MicroBeta Counter.”

[8] = target: T4, B2 receptor (Cavia porcellus, UniProt O70526); experiment: GPI binding B2; conditions: i.a. = inactive, read-out: GPI Binding - pIC50 B2 (converted)
T4 construct: from tissue
T4 sequence (O70526 1-372): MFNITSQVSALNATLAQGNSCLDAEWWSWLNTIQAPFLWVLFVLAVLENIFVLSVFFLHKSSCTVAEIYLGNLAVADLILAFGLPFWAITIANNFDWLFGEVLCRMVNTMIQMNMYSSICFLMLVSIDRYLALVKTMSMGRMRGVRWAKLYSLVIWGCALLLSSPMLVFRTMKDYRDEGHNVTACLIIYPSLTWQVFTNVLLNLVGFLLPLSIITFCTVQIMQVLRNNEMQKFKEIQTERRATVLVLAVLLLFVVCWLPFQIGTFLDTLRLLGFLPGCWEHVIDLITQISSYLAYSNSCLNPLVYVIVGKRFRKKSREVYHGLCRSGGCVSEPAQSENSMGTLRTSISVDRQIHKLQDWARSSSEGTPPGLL

Compound: N=C(N)NCCC[C@@H](N)C(=O)N[C@@H](CCCNC(=N)N)C(=O)N1CCC[C@H]1C(=O)N1C[C@H](O)C[C@H]1C(=O)NCC(=O)N[C@H](C(=O)N[C@@H](CO)C(=O)N[C@@H](C(=O)N1[C@H](C(=O)O)C[C@@H]2CCCC[C@@H]21)C1Cc2ccccc2C1)C1Cc2ccccc2C1 [B9812, DArg-Arg-Pro-Hyp-Gly-Igl-Ser-DIgl-Oic] (H-[dR]RP[Hyp]G[Igl]S[dIgl][Oic]-OH)
Half-Life [1]: > 6 h | Half-Life [2]: > 6 h | BK1 ED50 ([3]; ED50 expressed in pmol): 10.7 pmol | Duration of Action (following 20 min of highest dose) ([3]; return of agonist response after end of infusion): B1 still 100% blocked at 4.6 h | Selectivity (BK, desArg9BK, ACh, NE, Sp, AII) ([3]; which agonist responses are blocked at the stated infusion dose): B1 only at 1.0

Half-Life [1]: 0.020 h | Half-Life [2]: 0.085 h | BK1 ED50 ([3]; infusion, dose of antagonist to inhibit hypotensive response to desArg9BK by 50%): 0.546 ± .16 µg/kg/min
Compound: CC(C)C[C@H](NC(=O)[C@@H]1CCCN1C(=O)[C@H](CO)NC(=O)[C@H](Cc1ccccc1)NC(=O)CNC(=O)[C@@H]1CCCN1C(=O)[C@@H]1CCCN1C(=O)[C@H](CCCN=C(N)N)NC(=O)[C@@H](N)CCCCN)C(=O)O [CP-0298, desArg9 Lys0 Leu8 BX, reference compound]

Compound: RPPGFSPFR [Bradykinin, Arg^1 -Pro^2 -Pro^3 -Gly^4 -Phe^5 -Ser^6 -Pro^7 -Phe^8 -Arg^9, reference compound]
Half-Life ([1]; Rat kidney Brush Border, 37° C.): 0.13 h | Half-Life ([2]; Rat Lung Membranes, 37° C.): 0.13 h

Compound: [Leu^8, des-Arg^9 ]-bradykinin
effect on type I diabetic hyperglycemia [4]: cause a reduction in type I diabetic hyperglycemia | effect on angiogenic response elicited by bradykinin [5]: inhibit the angiogenic response elicited by bradykinin

Compound: N=C(N)NCCC[C@@H](N)C(=O)N[C@@H](CCCNC(=N)N)C(=O)N1CCC[C@H]1C(=O)N1C[C@H](O)C[C@H]1C(=O)NCC(=O)N[C@H](C(=O)N[C@@H](CO)C(=O)N1Cc2ccccc2C[C@@H]1C(=O)N[C@H](C(=O)O)C1CCCC1)C1CCCC1 [B9066, DArg-Arg-Pro-Hyp-Gly-Cpg-Ser-DTic-Cpg] (H-[dR]RP[Hyp]G[Gly(cPent)]S[dTic][Gly(cPent)]-OH)
IC50 [6]: 1.26 µM | IC50 [7]: 0.000501 µM | IC50 [8]: 2.51 µM | Half-Life [1]: > 6 h | Half-Life [2]: > 6 h
